Measurements published in patent US11225505B2, “Antimicrobial polymyxin derivative compounds” (MONASH UNIVERSITY, priority 2015, dated 2022).
Converted amounts (≈) assume the structure as drawn. Where a SMILES comes first, the peptide text is derived from it. Bridges are numbered along the chain shown (N, C = ends). [ ]: non-standard residue; d: D form. The star is where a group is joined. X1 = O=C(c1ncc(Cl)cc1Cl)*; Dab = NCC[C@H](N)C(=O)O; Abu = CC[C@H](N)C(=O)O; Dap = NC[C@H](N)C(=O)O

What was measured:
[1] = test system: Enterobacter cloacae FADDI-EC006; type: cell-based; settings: FADDI-EC006
How it was run: (§1)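 Following CLSI procedure M100-S24, minimum inhibitory concentrations of trifluoroacetate lipopeptides are measured in cation-adjusted Mueller-Hinton medium by broth microdilution, alongside a polymyxin B sulphate control.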

[2] = test system: Klebsiella pneumoniae FADDI-KP022; type: cell-based; settings: FADDI-KP022
How it was run: as §1

[3] = test system: Klebsiella pneumoniae Kp BM1; type: cell-based; settings: Kp BM1
How it was run: (§2)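 In cation-adjusted Mueller-Hinton broth, each lipopeptide (TFA salt) was titrated against the bacteria by microdilution and the minimum inhibitory concentration recorded per CLSI M100-S24; polymyxin B sulphate ran in parallel.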

[4] = test system: Enterobacter cloacae FADDI-EC001; type: cell-based; settings: FADDI-EC001
How it was run: as §2

[5] = test system: Enterobacter cloacae FADDI-EC003; type: cell-based; settings: FADDI-EC003
How it was run: as §1

[6] = test system: Pseudomonas aeruginosa FADDI-PA038; type: cell-based; settings: FADDI-PA038
How it was run: as §1

[7] = test system: Pseudomonas aeruginosa FADDI-PA01; type: cell-based; settings: FADDI-
How it was run: as §1

[8] = test system: Acinetobacter baumannii FADDI-AB034; type: cell-based; settings: FADDI-AB034
How it was run: as §1

[9] = test system: Pseudomonas aeruginosa FADDI-PA022; type: cell-based; settings: FADDI-PA022
How it was run: as §1

[10] = test system: Klebsiella pneumoniae FADDI-KP032; type: cell-based; settings: FADDI-KP032
How it was run: as §1

[11] = test system: Pseudomonas aeruginosa ATCC 27853; type: cell-based; settings: ATCC 27853
How it was run: as §1

[12] = test system: Acinetobacter baumannii ATCC 17978; type: cell-based; settings: ATCC 17978
How it was run: as §1

[13] = test system: mice; experiment: Acute toxicity observed in the mouse lung infection study; type: in vivo; settings: up to 180 mg/kg total dose (four times the polymyxin B dose)
Method: Lung infection was produced as follows. Mice (n=4) were anaesthetised by inhalation of 2% to 5% isoflurane in oxygen and rested in the supine position against a restraining board which was angled at 60-70° from the horizontal. Each mouse was inoculated with 25 μL of bacterial suspension in saline (˜10^6 bacterial cells in early logarithmic growth phase) sprayed directly into the trachea above the carina using a MicroSprayer® Aerosolizer (model IA-1C; Penn-Century, Philadelphia, Pa., USA). After discharge of the bacterial aerosol, mice were held upright on the restraining board for 2 min and then placed on a warm pad for recovery from anaesthesia. Treatment with polymyxin B and Compound 1, 3, 6 and 18 (intraperitoneal injection of dose-fractionated regimens across the daily dose) was initiated 2 h following inoculation. […] This was the highest dose of polymyxin B that could be safely administered without adverse effects, i.e. acute toxicity. Bacterial burdens in lungs were determined at 2 h after inoculation (untreated controls) and 24 h later (untreated controls and compound-treated mice). Animals were euthanised at 24 h by inhalation of overdose isoflurane. The skin on the chest and fore-paws of each animal was thoroughly cleansed with 70% ethanol and Betadine®. […] The bacterial colonies on the agar plate were counted and the log10 CFU/lung in each mouse was calculated (FIG. 1). […]

In the case of `CC[C@@H]1NC(=O)[C@@H](CC(C)C)NC(=O)[C@H](CCN)NC(=O)[C@@H](NC(=O)[C@H](CN)NC(=O)[C@@H](NC(=O)[C@H](CCN)NC(=O)c2ncc(Cl)cc2Cl)[C@@H](C)O)CCNC(=O)[C@H]([C@@H](C)O)NC(=O)[C@H](CCN)NC(=O)[C@H](CCN)NC1=O` [Compound 1] (X1-[Dab]T[Dap][Dab][Dab][dL][Abu][Dab][Dab]T; lactam 4-C), the Minimum inhibitory concentration [1] is reported as 0.5 µg/mL (≈ 0.431 µM), the Minimum inhibitory concentration [2] is reported as less than 0.125 µg/mL and the Minimum inhibitory concentration [3] is reported as 0.25 µg/mL (≈ 0.215 µM). It also gave a Minimum inhibitory concentration [4] of less than 0.125 µg/mL, a Minimum inhibitory concentration [5] of 2 µg/mL (≈ 1.72 µM) and a Minimum inhibitory concentration [6] of 1 µg/mL (≈ 0.861 µM). It also gave a Minimum inhibitory concentration [7] of 0.5 µg/mL (≈ 0.431 µM), a Minimum inhibitory concentration [8] of 2 µg/mL (≈ 1.72 µM) and a Minimum inhibitory concentration [9] of 1 µg/mL (≈ 0.861 µM). It also gave a Minimum inhibitory concentration [10] of 0.5 µg/mL (≈ 0.431 µM), a Minimum inhibitory concentration [11] of 0.5 µg/mL (≈ 0.431 µM) and a Minimum inhibitory concentration [12] of 2 µg/mL (≈ 1.72 µM). For the same molecule, the acute toxicity [13] was “without any observable acute toxicity”.
